# Assay results reported in patent US20220306640A1, “HYDANTOIN DERIVATIVE” (ONO PHARMACEUTICAL CO., LTD., priority 2019, published 2022).
# Experiments:
# [1] = biological target: T1, DDR1 (Homo sapiens, UniProt Q08345); assay: Measurement of DDR1 inhibitory activity (LanthaScreen system, in vitro test); type: binding; settings: GST-DDR1, Kinase tracer 178
# T1 construct: purchased Invitrogen
# How it was run: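 TR-FRET tracer-displacement binding assay with GST-DDR1, Kinase tracer 178 and Eu-anti-GST antibody in HEPES pH 7.5, MgCl2, EGTA, Brij-35 buffer, 1% DMSO. Compound preincubated with enzyme 15 min at RT, then tracer/antibody 1 h at RT; 665/615 nm read. Percent inhibition versus no-enzyme and DMSO controls; IC50 from inhibition curves.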
# [2] = biological target: T2, DDR1 phosphorylation in kidney (Mus musculus, UniProt Q03146); assay: Measurement of DDR1 phosphorylation suppression rate by using UUO (unilateral ureteral obstruction) model (in vivo test); design: species or system C57BL/6J mice; settings: UUO mice, dose of 10 mg/kg, oral single dose, kidney 8 h after dosing, relative to the difference between the untreated group and control group
# T2 construct: from tissue; host or cells: kidney of C57BL/6J mice (UUO model)
# T2 sequence (Q03146 20-911): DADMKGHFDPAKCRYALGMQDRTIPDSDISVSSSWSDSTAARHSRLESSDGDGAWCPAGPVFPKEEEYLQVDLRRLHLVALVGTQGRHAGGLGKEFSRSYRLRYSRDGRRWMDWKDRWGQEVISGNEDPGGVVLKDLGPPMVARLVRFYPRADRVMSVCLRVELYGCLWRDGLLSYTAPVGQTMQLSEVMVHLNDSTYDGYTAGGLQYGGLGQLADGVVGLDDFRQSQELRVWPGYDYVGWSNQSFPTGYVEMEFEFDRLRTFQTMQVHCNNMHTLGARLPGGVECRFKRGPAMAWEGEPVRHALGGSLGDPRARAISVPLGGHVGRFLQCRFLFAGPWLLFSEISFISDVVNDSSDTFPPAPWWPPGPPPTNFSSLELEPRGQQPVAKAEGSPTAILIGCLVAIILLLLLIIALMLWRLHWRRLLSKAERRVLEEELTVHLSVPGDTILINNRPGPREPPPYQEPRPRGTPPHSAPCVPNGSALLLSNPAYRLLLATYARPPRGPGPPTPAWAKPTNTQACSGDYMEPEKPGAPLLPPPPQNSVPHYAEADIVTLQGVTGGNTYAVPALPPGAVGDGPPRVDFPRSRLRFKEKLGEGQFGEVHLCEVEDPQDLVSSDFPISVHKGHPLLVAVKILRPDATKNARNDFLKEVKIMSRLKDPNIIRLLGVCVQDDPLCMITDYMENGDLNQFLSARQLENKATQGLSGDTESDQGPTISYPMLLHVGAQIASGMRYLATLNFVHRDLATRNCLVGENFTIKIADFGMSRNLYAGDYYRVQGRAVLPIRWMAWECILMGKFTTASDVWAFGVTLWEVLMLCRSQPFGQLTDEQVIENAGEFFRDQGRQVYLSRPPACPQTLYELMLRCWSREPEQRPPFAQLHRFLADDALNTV
# Protocol: Biological Example 4: Measurement of DDR1 phosphorylation suppression rate by using UUO (unilateral ureteral obstruction) model (in vivo test).
# Species & Strain: C57BL/6J mice
# Mice were randomly assigned to respective groups based on the animal's body weight.
# Surgery was performed in male C57BL/6J mice on Day 0. With the mice under anesthesia, operation area was disinfected with 75% alcohol after shaving. Mice in UUO group were exposed left ureter through a small incision on the left side of the abdomen and ligated with 3-0 silk at two locations about 0.5 cm below the renal hilum. Normal control mice were had their ureters manipulated but not ligated. Zoletil combined with Xylazine (20:1, v:v) were used in this study, the final dose of Zoletil was 25 mg/kg.
# Route: oral administration
# Dosage: 1, 3 and 10 mg/kg
# Body weights of all animals were measured prior surgery and prior dosing. Clinical observations of all animals were monitored and recorded daily throughout the study. […]
# On Day 3, all animals were euthanized with carbon dioxide. […] Then the samples were analyzed by Elisa.
# DDR1 and p-DDR1 levels in ipsilateral kidney samples were analyzed by Elisa method. […]
# All statistical tests were conducted, and the level of significance was set at 5% or P<0.05. The group means and standard deviation were calculated for all measurement parameters as study designed. […]
# T1 sequence (Q08345 19-913): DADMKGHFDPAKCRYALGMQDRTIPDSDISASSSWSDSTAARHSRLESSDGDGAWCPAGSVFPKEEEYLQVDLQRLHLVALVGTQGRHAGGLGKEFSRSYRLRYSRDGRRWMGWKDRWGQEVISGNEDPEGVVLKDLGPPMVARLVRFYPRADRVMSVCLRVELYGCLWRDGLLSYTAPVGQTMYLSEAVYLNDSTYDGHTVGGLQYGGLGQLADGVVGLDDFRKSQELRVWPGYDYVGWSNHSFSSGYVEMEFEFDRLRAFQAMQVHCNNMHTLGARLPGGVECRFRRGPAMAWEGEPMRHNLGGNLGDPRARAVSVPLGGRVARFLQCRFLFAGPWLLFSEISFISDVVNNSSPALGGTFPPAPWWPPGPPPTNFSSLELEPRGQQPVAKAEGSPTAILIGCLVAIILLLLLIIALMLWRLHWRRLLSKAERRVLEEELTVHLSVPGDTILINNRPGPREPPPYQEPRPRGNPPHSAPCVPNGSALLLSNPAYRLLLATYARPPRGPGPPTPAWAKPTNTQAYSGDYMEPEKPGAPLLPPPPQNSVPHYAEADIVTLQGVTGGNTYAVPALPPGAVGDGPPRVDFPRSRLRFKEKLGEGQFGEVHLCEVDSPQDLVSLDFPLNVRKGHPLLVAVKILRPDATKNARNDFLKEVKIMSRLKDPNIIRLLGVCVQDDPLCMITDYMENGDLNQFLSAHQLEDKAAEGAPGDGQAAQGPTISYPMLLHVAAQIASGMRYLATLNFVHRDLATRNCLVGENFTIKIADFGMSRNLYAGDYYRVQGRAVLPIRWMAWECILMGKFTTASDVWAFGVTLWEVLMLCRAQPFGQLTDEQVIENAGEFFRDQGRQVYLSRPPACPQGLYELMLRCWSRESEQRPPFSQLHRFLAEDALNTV
smiles,measurement,setting,value
"Cc1cc(Oc2ccnc(N)n2)ccc1N1C(=O)CN(c2ccc(F)c(OC(F)(F)F)c2)C1=O [Example 3(110), 3-{4-[(2-amino-4-pyrimidinyl)oxy]-2-methylphenyl}-1-[4-fluoro-3-(trifluoromethoxy)phenyl]-2,4-imidazolidinedione]",IC50,[1],1 nM
same,DDR1 phosphorylation suppression,[2],50%
